Reference: PubChem BioAssay AID2060623 (Molecular Pharmacology Branch, DTP, NCI, 2025)

System: 227483-062-R1-J1-PDC complex spheroids with HUVEC/MSC, viability
Assay: Anticancer human tumor 227483-062-R1-J1-PDC patient-derived pancreatic carcinoma cell line growth inhibition [CLK]
Settings: for IC50: curve of first compound; for viability, T/C: stronger effect = lower value
Method in brief: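 Multi-cell-type spheroids combined patient-derived tumor cells with HUVEC endothelial cells and human mesenchymal stem cells. Paired agents were dosed in half-log steps down from about clinical Cmax, or from 10 microM where Cmax was unknown.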
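Also: spheroids exposed to compounds for seven days before readout.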
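For viability, T/C in this document: percent of DMSO vehicle control luminescence as 100% viability.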

CC1(C)CCC(CN2CCN(c3ccc(C(=O)NS(=O)(=O)c4ccc(NCC5CCOCC5)c([N+](=O)[O-])c4)c(Oc4cnc5[nH]ccc5c4)c3)CC2)=C(c2ccc(Cl)cc2)C1 + CN1CCN(c2cc(C(=O)Nc3cc4cc(-c5cnn(C)c5)ccc4cn3)ccn2)CC1
IC50 (second compound 0.0316 µM): 5.67 µM | IC50 (second compound 0.1 µM): 4.23 µM | IC50 (second compound 0.316 µM): < 0.0316 µM | IC50 (second compound 1 µM): < 0.0316 µM | IC50 (second compound 3.16 µM): < 0.0316 µM | IC50 (second compound 10 µM): < 0.0316 µM | viability, T/C (second compound 0.0316 µM, first compound 0.0316 µM): 93.9% | viability, T/C (second compound 0.0316 µM, first compound 0.1 µM): 96.5% | viability, T/C (second compound 0.0316 µM, first compound 0.316 µM): 110% | viability, T/C (second compound 0.0316 µM, first compound 1 µM): 110% | viability, T/C (second compound 0.0316 µM, first compound 3.16 µM): 89.8% | viability, T/C (second compound 0.0316 µM, first compound 10 µM): 11.5% | viability, T/C (second compound 0.1 µM, first compound 0.0316 µM): 58% | viability, T/C (second compound 0.1 µM, first compound 0.1 µM): 58.1% | viability, T/C (second compound 0.1 µM, first compound 0.316 µM): 63.1% | viability, T/C (second compound 0.1 µM, first compound 1 µM): 62.7% | viability, T/C (second compound 0.1 µM, first compound 3.16 µM): 81.3% | viability, T/C (second compound 0.1 µM, first compound 10 µM): 6.59% | viability, T/C (second compound 0.316 µM, first compound 0.0316 µM): 5.04% | viability, T/C (second compound 0.316 µM, first compound 0.1 µM): 6.53% | viability, T/C (second compound 0.316 µM, first compound 0.316 µM): 5.51% | viability, T/C (second compound 0.316 µM, first compound 1 µM): 5.88% | viability, T/C (second compound 0.316 µM, first compound 3.16 µM): 6.54% | viability, T/C (second compound 0.316 µM, first compound 10 µM): 1.59% | viability, T/C (second compound 1 µM, first compound 0.0316 µM): 2.1% | viability, T/C (second compound 1 µM, first compound 0.1 µM): 2.74% | viability, T/C (second compound 1 µM, first compound 0.316 µM): 2.88% | viability, T/C (second compound 1 µM, first compound 1 µM): 2.08% | viability, T/C (second compound 1 µM, first compound 3.16 µM): 1.44% | viability, T/C (second compound 1 µM, first compound 10 µM): 0.36% | viability, T/C (second compound 3.16 µM, first compound 0.0316 µM): 3.39% | viability, T/C (second compound 3.16 µM, first compound 0.1 µM): 4.13% | viability, T/C (second compound 3.16 µM, first compound 0.316 µM): 2.75% | viability, T/C (second compound 3.16 µM, first compound 1 µM): 2.22% | viability, T/C (second compound 3.16 µM, first compound 3.16 µM): 2.43% | viability, T/C (second compound 3.16 µM, first compound 10 µM): 2.73% | viability, T/C (second compound 10 µM, first compound 0.0316 µM): 2.85% | viability, T/C (second compound 10 µM, first compound 0.1 µM): 2.4% | viability, T/C (second compound 10 µM, first compound 0.316 µM): 1.5% | viability, T/C (second compound 10 µM, first compound 1 µM): 4.14% | viability, T/C (second compound 10 µM, first compound 3.16 µM): 1.34% | viability, T/C (second compound 10 µM, first compound 10 µM): 0.39%
